From patent US20080096933A1, “4-Pyridinylethylcarboxamide Derivatives Useful as Fungicides” (priority 2004, published 2008)

Experiments:
Botrytis cinerea = test: Effectiveness on Botrytis cinerea at 330 ppm; assay type: in vivo
Pyrenophora teres = test: In vivo test on Pyrenophora teres (barley net blotch); details: barley plants (Express variety), preventive spray, dose of 330 ppm, grading 12 days after contamination, in comparison with control plants
Method: In Vivo Test on Pyrenophora teres (Barley Net Blotch)
The active ingredient tested is prepared by potter homogenisation in a concentrated suspension type formulation at 100 g/l. This suspension is then diluted with water to obtain the desired active material concentration.
Barley plants (Express variety) in starter cups, sown on a 50/50 peat soil-pozzolana substrate and grown at 12° C., are treated at the 1-leaf stage (10 cm tall) by spraying with the aqueous suspension described above. Plants, used as controls, are treated with an aqueous solution not containing the active material.
After 24 hours, the plants are contaminated by spraying them with an aqueous suspension of Pyrenophora teres spores (12,000 spores per ml). The spores are collected from a 12-day-old culture The contaminated barley plants are incubated for 24 hours at about 20° C. and at 100% relative humidity, and then for 12 days at 80% relative humidity.
Grading is carried out 12 days after the contamination, in comparison with the control plants. Under these conditions, good (at least 50%) or total protection is observed at a dose of 330 ppm with the following compounds: A-1.

Alternaria brassicae = test: Effectiveness on Alternaria brassicae at 330 ppm; assay type: in vivo
Peronospora parasitica = test: Efficacy against Peronospora parasitica at 330 ppm; assay type: in vivo

| Structure (SMILES) | effectiveness on Botrytis cinerea (Botrytis cinerea) | protection (good (at least 50%) or total) (Pyrenophora teres) | effectiveness on Alternaria brassicae (Alternaria brassicae) | efficacy against Peronospora parasitica (Peronospora parasitica) |
| --- | --- | --- | --- | --- |
| CCNC(=O)C(Cc1ncc(C(F)(F)F)cc1Cl)NC(=O)c1ccccc1 (stereo not shown) [compound 304, N-{1-ethylcarbamoyl-2-[3-chloro-5-(trifluoromethyl)-2-pyridinyl]ethyl}-benzamide] | zero effectiveness | – | – | – |
| CNC(=O)C(Cc1ncc(C(F)(F)F)cc1Cl)NC(=O)c1ccccc1 (stereo not shown) [compound 314, N-{1-methylcarbamoyl-2-[3-chloro-5-(trifluoromethyl)-2-pyridinyl]ethyl}-benzamide] | zero effectiveness | – | – | – |
| Cn1cc(C(=O)NCCc2c(F)c(F)nc(F)c2F)c(C(F)F)n1 [Compound A-1, 3-(difluoromethyl)-1-methyl-N-[2-(2,3,5,6-tetrafluoro-4-pyridinyl)ethyl]-1H-pyrazole-4-carboxamide] | – | at least 50% | – | – |
| O=C(Cc1cccs1)NCc1ncc(C(F)(F)F)cc1Cl [compound 101, N-{[3-chloro-5-(trifluoromethyl)-2-pyridinyl]methyl}-5-thienylacetamide] | no efficacy | – | poor efficacy | no efficacy |
| CCNC(=O)C(Cc1ncc(C(F)(F)F)cc1Cl)NC(=O)c1ccc(Cl)cc1 (stereo not shown) [compound 306, N-{1-ethylcarbamoyl-2-[3-chloro-5-(trifluoromethyl)-2-pyridinyl]ethyl}-4-chlorobenzamide] | zero effectiveness | – | – | – |
| CCNC(=O)C(Cc1ncc(C(F)(F)F)cc1Cl)NC(=O)c1cccc([N+](=O)[O-])c1 (stereo not shown) [compound 307, N-{1-ethylcarbamoyl-2-[3-chloro-5-(trifluoromethyl)-2-pyridinyl]ethyl}-3-nitrobenzamide] | zero effectiveness | – | poor effectiveness | – |
| CNC(=O)C(Cc1ncc(C(F)(F)F)cc1Cl)NC(=O)c1ccc(-c2ccccc2)cc1 (stereo not shown) [compound 316, N-{1-methylcarbamoyl-2-[3-chloro-5-(trifluoromethyl)-2-pyridinyl]ethyl}-4-phenylbenzamide] | zero effectiveness | – | poor effectiveness | – |
| CNC(=O)C(Cc1ncc(C(F)(F)F)cc1Cl)NC(=O)c1ccc(OC)cc1 (stereo not shown) [compound 315, N-{1-methylcarbamoyl-2-[3-chloro-5-(trifluoromethyl)-2-pyridinyl]ethyl}-4-methoxybenzamide] | zero effectiveness | – | – | – |
| CCNC(=O)C(Cc1ncc(C(F)(F)F)cc1Cl)NC(=O)c1ccccc1Br (stereo not shown) [compound 310, N-{1-ethylcarbamoyl-2-[3-chloro-5-(trifluoromethyl)-2-pyridinyl]ethyl}-2-bromobenzamide] | zero effectiveness | – | – | – |
